{
  "source": "ChEMBL document CHEMBL3638542",
  "about": "“Imidazo[1,2-a]pyridine derivatives: preparation and pharmaceutical applications” (2014)",
  "data": [
    {"molecular_target": "Histone deacetylase 1 (Homo sapiens, UniProt Q13547)", "sequence (Q13547 whole entry)": "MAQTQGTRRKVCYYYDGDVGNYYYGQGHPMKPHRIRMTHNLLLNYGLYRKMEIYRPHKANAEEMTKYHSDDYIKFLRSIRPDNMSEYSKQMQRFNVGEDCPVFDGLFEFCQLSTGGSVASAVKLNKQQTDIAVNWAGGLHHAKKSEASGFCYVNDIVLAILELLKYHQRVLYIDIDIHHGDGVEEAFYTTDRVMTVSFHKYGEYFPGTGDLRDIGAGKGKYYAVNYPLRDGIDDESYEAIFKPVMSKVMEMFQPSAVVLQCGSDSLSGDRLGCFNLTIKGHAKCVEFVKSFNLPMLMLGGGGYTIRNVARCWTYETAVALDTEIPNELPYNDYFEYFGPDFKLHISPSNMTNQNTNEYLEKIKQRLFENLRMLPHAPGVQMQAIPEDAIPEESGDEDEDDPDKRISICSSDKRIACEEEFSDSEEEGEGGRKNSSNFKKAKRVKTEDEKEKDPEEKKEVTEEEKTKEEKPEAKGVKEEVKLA", "experiment": "BIOMOL Fluorescent-Based Assay: The assay has been carried out in 96 well format and the BIOMOL fluorescent-based HDAC activity assay has been applied. The reaction composed of assay buffer, containing 25 mM Tris pH 7.5, 137 mM NaCl, 2.7 mM KCl, 1 mM MgCl2, 1 mg/ml BSA, tested compounds, an appropriate concentration of HDAC1 enzyme, 500 uM Flur de lys generic substrate for HDAC1 enzyme and subsequently was incubated at room temperature for 2 h. Flur de lys Developer was added and the reaction was incubated for 10 min. Briefly, deacetylation of the substrate sensitizes it to the developer, which then generates a fluorophore. The fluorophore is excited with 360 nm light and the emitted light (460 nm) is detected on a fluorometric plate reader (Tecan Ultra Microplate detection system, Tecan Group Ltd.).", "units": {"IC50": "nM"}, "values": [
      {"smiles": "COCCNc1c(CCC(=O)O)nc2ccc(/C=C/C(=O)NO)cn12", "IC50": 320},
      {"smiles": "CC(C)(C)Nc1c(C(=O)O)nc2ccc(/C=C/C(=O)NO)cn12", "IC50": "> 10000"},
      {"smiles": "CCCCCCc1nc2cc(/C=C/C(=O)NO)ccn2c1NCCC(=O)N(C)CC#N", "IC50": "> 10000"},
      {"smiles": "CCCCc1nc2cc(/C=C/C(=O)NO)ccn2c1CN(CC)CC(C)CCC", "note": "(centres undefined)", "IC50": 60}
    ]}
  ]
}
